What was measured:
Squalene synthase = target: T1, Squalene synthase (Rattus norvegicus, UniProt Q02769); assay: In vitro inhibitory activity against Squalene synthase from rats
T1 sequence (Q02769 whole entry): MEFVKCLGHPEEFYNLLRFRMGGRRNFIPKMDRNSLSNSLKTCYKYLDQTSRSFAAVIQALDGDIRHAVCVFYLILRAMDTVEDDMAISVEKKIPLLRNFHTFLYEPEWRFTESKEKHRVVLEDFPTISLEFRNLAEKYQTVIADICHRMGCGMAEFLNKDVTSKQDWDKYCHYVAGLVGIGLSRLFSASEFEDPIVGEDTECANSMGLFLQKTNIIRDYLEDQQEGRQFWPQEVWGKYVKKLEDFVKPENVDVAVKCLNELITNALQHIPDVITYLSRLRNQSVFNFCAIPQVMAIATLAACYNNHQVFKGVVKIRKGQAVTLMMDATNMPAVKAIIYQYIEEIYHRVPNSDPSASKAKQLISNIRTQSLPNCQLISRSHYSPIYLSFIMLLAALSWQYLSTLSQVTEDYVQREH

[1] = Effect on % of cholesterol reduction measured on serum cholesterol level in marmosets after single iv dose 10 mg/kg on day 7; format: functional, Callitrichinae
[2] = Effect on % of cholesterol reduction measured on serum cholesterol level in marmosets after single iv dose 50 mg/kg on day 3; format: functional, Callitrichinae
[3] = Effect on % of cholesterol reduction measured on serum cholesterol level in marmosets after single iv dose 50 mg/kg on day 7; format: functional, Callitrichinae
[4] = Effect on % of cholesterol reduction measured on serum cholesterol level in marmosets after single iv dose 30 mg/kg on day 2; format: functional, Callitrichinae
[5] = Effect on % of cholesterol reduction measured on serum cholesterol level in marmosets after single iv dose 50 mg/kg on day 2; format: functional, Callitrichinae
[6] = Effect on % of cholesterol reduction measured on serum cholesterol level in marmosets after single iv dose 30 mg/kg on day 3; format: functional, Callitrichinae
[7] = Effect on % of cholesterol reduction measured on serum cholesterol level in marmosets after single iv dose 16.7 mg/kg on day 2; format: functional, Callitrichinae
[8] = Effect on % of cholesterol reduction measured on serum cholesterol level in marmosets after single iv dose 10 mg/kg on day 2; format: functional, Callitrichinae
[9] = Effect on % of cholesterol reduction measured on serum cholesterol level in marmosets after single iv dose (3 times a day for 3 days) 16.7 mg/kg on day 7; format: functional, Callitrichinae
[10] = Effect on % of cholesterol reduction measured on serum cholesterol level in marmosets after single iv dose 16.7 mg/kg on day 3; format: functional, Callitrichinae
[11] = Effect on % of cholesterol reduction measured on serum cholesterol level in marmosets after single iv dose 10 mg/kg on day 3; format: functional, Callitrichinae
[12] = Effect on % of cholesterol reduction measured on serum cholesterol level in marmosets after single iv dose 30 mg/kg on day 7; format: functional, Callitrichinae

IC50 (Squalene synthase) [nM]	SMILES	other results
3	C=C(CC[C@]12O[C@H](CNC(N)=O)[C@@](O)(C(=O)O)[C@](C(=O)O)(O1)[C@H](OC(=O)/C=C/[C@@H](C)C[C@@H](C)CC)[C@H]2O)[C@@H](OC(C)=O)[C@H](C)Cc1ccccc1	
> 1000	C=C(CC[C@]12O[C@H](COC)[C@@](O)(C(=O)O)[C@](C(=O)O)(O1)[C@H](O)[C@H]2O)[C@@H](OC(C)=O)[C@H](C)Cc1ccccc1	
> 1000	C=C(CC[C@]12O[C@H](CN)[C@@](O)(C(=O)O)[C@](C(=O)O)(O1)[C@H](O)[C@H]2O)[C@@H](OC(C)=O)[C@H](C)Cc1ccccc1	
4	C=C(CC[C@]12O[C@H](CN)[C@@](O)(C(=O)O)[C@](C(=O)O)(O1)[C@H](OC(=O)/C=C/[C@@H](C)C[C@@H](C)CC)[C@H]2O)[C@@H](OC(C)=O)[C@H](C)Cc1ccccc1	
10	C=C(CC[C@]12O[C@H](CN(C)C)[C@@](O)(C(=O)O)[C@](C(=O)O)(O1)[C@H](OC(=O)/C=C/[C@@H](C)C[C@@H](C)CC)[C@H]2O)[C@@H](OC(C)=O)[C@H](C)Cc1ccccc1	
13	C=C(CC[C@]12O[C@H](COC)[C@@](O)(C(=O)O)[C@](C(=O)O)(O1)[C@H](OC(=O)/C=C/[C@@H](C)C[C@@H](C)CC)[C@H]2O)[C@@H](OC(C)=O)[C@H](C)Cc1ccccc1	
> 1000	C=C(CC[C@]12O[C@H](CNC(N)=O)[C@@](O)(C(=O)O)[C@](C(=O)O)(O1)[C@H](O)[C@H]2O)[C@@H](OC(C)=O)[C@H](C)Cc1ccccc1	
1000	C=C(CC[C@]12O[C@H](CNS(=O)(=O)C(F)(F)F)[C@@](O)(C(=O)O)[C@](C(=O)O)(O1)[C@H](O)[C@H]2O)[C@@H](OC(C)=O)[C@H](C)Cc1ccccc1	
65	C=C(CC[C@]12O[C@H](CN=C(N)N)[C@@](O)(C(=O)O)[C@](C(=O)O)(O1)[C@H](OC(=O)/C=C/[C@@H](C)C[C@@H](C)CC)[C@H]2O)[C@@H](OC(C)=O)[C@H](C)Cc1ccccc1	
11	C=C(CC[C@]12O[C@H](C(C)=O)[C@@](O)(C(=O)O)[C@](C(=O)O)(O1)[C@H](OC(=O)/C=C/[C@@H](C)C[C@@H](C)CC)[C@H]2O)[C@@H](OC(C)=O)[C@H](C)Cc1ccccc1	
	C=C(CC[C@]12O[C@H](CO)[C@@](O)(C(=O)O)[C@](C(=O)O)(O1)[C@H](OC(=O)/C=C/[C@@H](C)C[C@@H](C)CC)[C@H]2O)[C@@H](OC(C)=O)[C@H](C)Cc1ccccc1	Reduction [1]: 14%; Reduction [2]: 21%; Reduction [3]: 28%; Reduction [4]: 30%; Reduction [5]: 31%; Reduction [6]: 20%; Reduction [7]: 47%; Reduction [8]: 5%; Reduction [9]: 32%; Reduction [10]: 62%; Reduction [11]: 2%; Reduction [12]: 16%
500	C=C(CC[C@]12O[C@H](C(C)=O)[C@@](O)(C(=O)O)[C@](C(=O)O)(O1)[C@H](O)[C@H]2O)[C@@H](OC(C)=O)[C@H](C)Cc1ccccc1	
60	C=C(CC[C@]12O[C@H](CNS(=O)(=O)C(F)(F)F)[C@@](O)(C(=O)O)[C@](C(=O)O)(O1)[C@H](OC(=O)/C=C/[C@@H](C)C[C@@H](C)CC)[C@H]2O)[C@@H](OC(C)=O)[C@H](C)Cc1ccccc1	
